Reference: publication PMC8166343 (Biochemical Journal, 2021)

Legend:
SPIN1 TUDOR = format: binding; settings: 1 h, 4°C; pH 7.5
ING3 PHD = format: binding; settings: 1 h, 4°C; pH 7.5
TAF3 PHD finger = format: binding
ING3 PHD finger = format: binding
KDM7A PHD finger = format: binding
endogenous PHF2 = format: binding; settings: 1 h, 4°C
PHF2 PHD = format: binding; settings: 1 h, 4°C; pH 7.5
endogenous SPIN1 = format: binding; settings: 1 h, 4°C
Set7/9 = format: biochemical; settings: pH 8.5
PHF23 PHD finger = format: binding
PHF2 PHD finger = format: binding

Substance	pull-down of GST-SPIN1 TUDOR (SPIN1 TUDOR)	pull-down of GST-ING3 PHD (ING3 PHD)	interaction with TAF3 PHD finger (TAF3 PHD finger)	interaction with ING3 PHD finger (ING3 PHD finger)	interaction with KDM7A PHD finger (KDM7A PHD finger)	enrichment of endogenous PHF2 (endogenous PHF2)	pull-down of GST-PHF2 PHD (PHF2 PHD)	enrichment of endogenous SPIN1 (endogenous SPIN1)	methylation by Set7/9 (Set7/9)	interaction with PHF23 PHD finger (PHF23 PHD finger)	interaction with PHF2 PHD finger (PHF2 PHD finger)
PRRK(me3)QQAPRRSA-Biotin (PRRKQQAPRRSA) [TSHZ1 K4me3]	interacted	methylation-dependent interactions	bound	bound	–	–	–	–	–	–	–
SRRK(me3)QGNPQHLS-Biotin [BCL11B K4me3]	interacted	–	interacted	–	interacted	very weakly	strongly interacted	enriched	could not methylate	selectively interacted	interacted
VRTK(me3)ADSVPGTY-Biotin [PCLAF K4me3]	–	–	–	–	only recognized KDM7A	–	–	–	–	–	–
